Measured values from US5098931A, “7-substituted HMG-CoA reductase inhibitors” (Merck & Co., Inc., priority 1990, dated 1992).

Biological target: T1, HMG-CoA reductase (Rattus norvegicus, UniProt P51639)
T1 sequence (P51639 1-887): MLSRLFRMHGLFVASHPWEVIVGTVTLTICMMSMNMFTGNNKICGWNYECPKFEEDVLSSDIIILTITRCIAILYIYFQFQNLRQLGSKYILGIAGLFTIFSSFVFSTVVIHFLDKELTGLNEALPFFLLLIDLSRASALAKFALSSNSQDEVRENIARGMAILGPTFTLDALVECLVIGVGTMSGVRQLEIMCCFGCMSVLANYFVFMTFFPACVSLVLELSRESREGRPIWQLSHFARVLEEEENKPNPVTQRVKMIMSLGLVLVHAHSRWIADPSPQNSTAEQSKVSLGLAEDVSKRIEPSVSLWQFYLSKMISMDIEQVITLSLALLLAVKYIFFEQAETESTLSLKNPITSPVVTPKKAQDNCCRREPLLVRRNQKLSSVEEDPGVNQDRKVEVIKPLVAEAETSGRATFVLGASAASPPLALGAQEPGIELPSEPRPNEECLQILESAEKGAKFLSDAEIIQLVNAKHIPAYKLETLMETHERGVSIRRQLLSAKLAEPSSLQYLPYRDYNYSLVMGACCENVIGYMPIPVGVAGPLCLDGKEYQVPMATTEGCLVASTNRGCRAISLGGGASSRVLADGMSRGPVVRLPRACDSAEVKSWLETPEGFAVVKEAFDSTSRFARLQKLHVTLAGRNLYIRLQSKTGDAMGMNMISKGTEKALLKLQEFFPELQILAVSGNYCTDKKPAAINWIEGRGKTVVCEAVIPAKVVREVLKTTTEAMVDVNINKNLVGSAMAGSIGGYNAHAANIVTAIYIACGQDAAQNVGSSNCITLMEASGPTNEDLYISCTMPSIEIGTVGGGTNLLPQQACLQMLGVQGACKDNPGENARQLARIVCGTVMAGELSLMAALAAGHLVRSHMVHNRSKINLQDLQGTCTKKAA
Assay: intrinsic HMG-CoA reductase inhibition, published in vitro protocol (J. Med. Chem., 28, p. 347-358 (1985))
Assay type: biochemical
Conditions: IC50 of test compound compared with that of compactin (mevastatin) determined simultaneously; compactin assigned a value of 100
Method: The intrinsic HMG-CoA reductase inhibition activity of the claimed compounds is measured in the in vitro protocol published in J. Med. Chem., 28, p. 347-358 (1985). […] Representative of the intrinsic HMG-CoA reductase inhibitory activities of the claimed compounds are the following relative potencies for compounds of formula (I).

Point of comparison: `CCC(C)(C)C(=O)O[C@@H]1[C@H]2C(=C[C@H](C)[C@H]1[C@@H](C)O)C=C[C@H](C)[C@@H]2CC[C@@H]1C[C@@H](O)CC(=O)O1` [6R-[2-[8(R)-(2,2-dimethylbutyryloxy)-2(S)-methyl-6(S)-methyl-7(S)-(1(R)-hydroxyethyl)-1,2,6,7,8,8a(R)-hexahydronaphthyl-1(S)]ethyl]-4(R)-hydroxy-3,4,5,6-tetrahydro-2H-pyran-2-one], “Relative Potency (Compactin = 100)” value 124. Against it:
- CCC(C)(C)C(=O)O[C@H]1[C@H](C)[C@@H](C)C=C2C=C[C@H](C)[C@H](CC[C@@H]3C[C@@H](O)CC(=O)O3)[C@H]21 [6(R)-[2-[8(R)-(2,2-dimethylbutyryloxy)-2(S)-methyl-6(S)-methyl-7(R)-methyl-1,2,6,7,8,8a(R)-hexahydronaphthyl-1(S)]ethyl]-4(R)-hydroxy-3,4,5,6-tetrahydro-2H-pyran-2-one] — higher, 174
- CCC(C)(C)C(=O)O[C@H]1[C@@H](O)[C@@H](C)C=C2C=C[C@H](C)[C@H](CC[C@@H]3C[C@@H](O)CC(=O)O3)[C@H]21 [6(R)-[2-[8(R)-(2,2-dimethylbutyryloxy)-2(S)-methyl-6(S)-methyl-7(S)-hydroxy-1,2,6,7,8,8a(R)-hexahydronaphthyl-1(S)]ethyl]-4(R)-hydroxy-3,4,5,6-tetrahydro-2H-pyran-2-one] — higher, 214
- CCC(C)(C)C(=O)O[C@H]1[C@H](CO)[C@@H](C)C=C2C=C[C@H](C)[C@H](CC[C@@H]3C[C@@H](O)CC(=O)O3)[C@H]21 [6(R)-[2-[8(R)-(2,2-dimethylbutyryloxy)-2(S)-methyl-6(S)-methyl-7(S)-hydroxymethyl-1,2,6,7,8,8a(R)-hexahydronaphthyl-1(S)]ethyl]-4(R)-hydroxy-3,4,5,6-tetrahydro-2H-pyran-2-one] — higher, 262
- CCC(C)(C)C(=O)O[C@@H]1[C@H]2C(=C[C@H](C)[C@H]1[C@H](O)c1ccccc1)C=C[C@H](C)[C@@H]2CC[C@@H]1C[C@@H](O)CC(=O)O1 [6R-[2-[8(R)-(2,2-dimethylbutyryloxy)-2(S)-methyl-6(S)-methyl-7(S)-(1(S)-hydroxybenzyl)-1,2,6,7,8,8a(R)-hexahydronaphthyl-1(S)]-ethyl]-4(R)-hydroxy-3,4,5,6-tetrahydro-2H-pyran-2-one] — higher, 137
- CCC(C)(C)C(=O)O[C@@H]1[C@H]2C(=C[C@H](C)[C@H]1[C@H](C)O)C=C[C@H](C)[C@@H]2CC[C@@H]1C[C@@H](O)CC(=O)O1 [6R-[2-[8(R)-(2,2-dimethylbutyryloxy)-2(S)-methyl-6(S)-methyl-7(S)-(1(S)-hydroxyethyl)-1,2,6,7,8,8a(R)-hexahydronaphthyl-1(S)]ethyl]-4(R)-hydroxy-3,4,5,6-tetrahydro-2H-pyran-2-one] — higher, 350
